Experimental findings from PubChem BioAssay AID504489 (Sanford-Burnham Center for Chemical Genomics, 2011) are described below.

Usually IC50 stands for the concentration that gives 50% inhibition.

Activity calls are given as the source filed them.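 The calls were made as follows: active = IC50 at or below 20 µM; inactive = the rest.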

The subject of this assay is 697 B-cell NF-kB luciferase, PMA/ionomycin, luminescence 16 h. Kind of assay: NF-kB reporter signal decrease in 697 cells – B- and T-cell screen hits, luminescence, SAR follow-up (AID 504489).

As for `Cc1ccc(S(=O)(=O)Nc2cccc3ccc(C)nc23)cc1`, the IC50 is 2740 nM.

As to `COc1cc(NS(=O)(=O)c2ccccc2)c2ncccc2c1`, the IC50 is 1290 nM.

On to `COc1cc(N)c2ncccc2c1`, for which the IC50 was > 79000 nM (inactive).

With `Cc1ccc2cccc(NS(=O)(=O)c3ccccc3)c2n1`, the IC50 is > 79000 nM (inactive).

In the case of `COc1cc(NS(=O)(=O)c2ccc(C)cc2)c2ncccc2c1`, the IC50 is 2580 nM.

`Nc1cccc2cccnc12`: the IC50 is > 79000 nM (inactive).

Turning to `Cc1ccc(S(=O)(=O)Nc2cccc3cccnc23)cc1`, the IC50 was 2210 nM.

Turning to `O=S(=O)(Nc1cccc2cccnc12)c1ccccc1`, the IC50 is 1400 nM.

Turning to `Cc1ccc2cccc(N)c2n1`, the IC50 is > 79000 nM (inactive).
